“And” between values parts separate entries of the source, which are not always exact repeats. Identical values can stand only once.
Key:
[1] = system: CD98 (4F2hc, SLC3A2); experiment: Surface CD98 nutrient transporter down-regulation by flow cytometry; assay type: cell-based, murine; details: FL5.12 cells, surface CD98 at 3 h, flow cytometry, mean ± SEM, n ≥3
Description: (§1) In an exemplified study, nutrient transporter down-regulation was monitored by quantifying surface levels of the amino acid transporter-associated protein, CD98, by flow cytometry. Vacuolation was scored in a range from 0 to […], as determined by a vacuolation assay described in greater detail in the Materials and Methods section below.
Cell culture studies: FL5.12 cells (murine hematopoetic cells originally obtained from Craig Thompson, Memorial Sloan Kettering Cancer Center) were maintained at 0.1-0.5 million/ml in RPMI 1640 (Mediatech) supplemented with 10% fetal calf serum (FCS, Sigma-Aldrich), 10 mM Hepes (Mediatech), 500 pg/ml recombinant IL-3 (cat #575502, Biolegend), 55 μM β-mercaptoethanol (Sigma-Aldrich), 2 mM L-glutamine (Mediatech), and antibiotics. Cells were screened for Mycoplasma every 3 months using the Look-Out Mycoplasma PCR Detection kit (cat #MP0035, Sigma).
Nutrient transporter expression: Surface CD98 (4F2hc, SLC3A2) expression was measured at 3 h using phycoerythrin (PE)-conjugated rat anti-mouse CD98 antibody (Biolegend, cat #128208); analysis was restricted to viable cells. PE conjugated Rat IgG2a, k (cat #400508, Biolegend) was used as an isotype control. For staining, 200,000 cells were pelleted, re-suspended in 100 μl FACS block (PBS with 10% FCS and 0.05% NaN3) containing 0.25 μL anti-CD98 antibody, incubated on ice for 30 min, washed twice with 1 ml FACS wash (PBS containing 2% FCS and 0.05% NaN3), and analyzed on a BD LSR II flow cytometer. Data was processed with FlowJo software (Treestar).

[2] = system: FL5.12 cells; experiment: Vacuolation assay; assay type: cell-based, murine; set-up: key to Vacuolation score: 0-100 score: (3×%cat3+2×%cat2+1×%cat1)/3; cells graded 0-3 for vacuoles; details: FL5.12 cells, 3 h in 2.5 μM compound except where otherwise indicated, mean ± SEM, n ≥3
Protocol: as §1
Vacuolation assay: Cells were evaluated at 100× using brightfield microscopy and a Nikon TE2000-S fluorescence microscope equipped with DIC filters. Vacuolation was quantified after a 3 h incubation period in 2.5 μM compound except where otherwise indicated. To calculate a vacuolation score, vacuolation severity in at least 15 individual cells/experiment was assessed qualitatively. Scores were assigned to individual cells as follows: 0=no vacuoles, 1=very small vacuoles, 2=multiple well-defined vacuoles, 3=multiple large vacuoles. To calculate the vacuolation score associated with a compound, the following formula was used: vacuolation score=[(3×% cells in category 3)+(2×% cells in category 2)+(1×% cells in category 1)]/3.
The score is divided by 3 so that a compound with 100% of its cells in category 3 would have a vacuolation score of 100. Three independent experiments were conducted and the vacuolation scores averaged to generate a mean+/−SEM. All cells were scored by one lab member after confirming that a blinded individual scored 5 compounds with similar results.

[3] = system: fusion of LC3-positive autophagosomes with LAMP1-positive lysosomes; experiment: Autophagosome-lysosome fusion in chloroquine-treated cells; assay type: cell-based
Protocol: It is known in the art that cells adapt to nutrient stress by increasing autophagic flux. However, autophagosome-lysosome fusion reactions depend upon […] release via TRPML1 channels that are activated by PI(3,5)P2. […] Chloroquine (CQ) is molecule that stabilizes the transient autophagosomes. Cells were treated with CG to stabilize autophagolysosomes and subsequently treated with FTY720, SH-BC-893, or YM201636. […] Phosphatidylinositol 5-Phosphate (PI(5)P) is essential for autophagosome biogenesis upon glucose depletion. PI(5)P is produced by dephosphorylating PI(3,5)P2, and thus PI(5)P might also be mis-localized in SH-BC-893-treated cells, and thus also contributing to the disruption of autophagosome formation. […] Thus, SH-BC-893 inhibited both autophagosome formation and degradation. As a control, Vac14 over-expression limited vacuolation (FIGS. 55F, 61F, and 62B) and rescued autophagic flux in SH-BC-893-treated cells (FIGS. 61A, 61B, 61D and 61E).
(§2) Light Microscopy: Brightfield and epifluorescence microscopy were conducted using a Nikon TE2000-S fluorescence microscope; confocal microscopy was performed on a Zeiss LSM780 confocal microscope or Nikon Eclipse Ti spinning disk confocal microscope. […] Co-localization was determined using JACoP plugin in ImageJ software. Macropinocytosis was measured after 16 h incubation in serum-free DMEM. p53−/−; LSL-K-RasG12D MEFs before (LSL) or after (KRasG12D) introduction of Cre were serum starved for 16 h and then treated with macropinocytosis inhibitor 5-(N-ethyl-N-isopropyl) amiloride (EIPA, 75 μM) for 1 h or SH-BC-893 for 6 h. Oregon Green dextran (Life Technologies, cat #D7173) (1 mg/mL) and Lysotracker Red (Life Technologies, cat #L-7525) (1:2,000 dilution) were added for 30 min and live cells were evaluated on the spinning disc confocal microscope. […]

[4] = system: K-RasG12D expressing cells; experiment: Macropinosome fusion with lysosomes; assay type: cell-based; details: dextran
Description: In cells with activated Ras, macropinocytosis might also confer resistance to nutrient transporter down-regulation. However, PI(3,5)P2 is also required for macropinosome degradation. […] Macropinosomes that fail to fuse with lysosomes would not be able to supply nutrients, such as amino acids. Thus, by disrupting PIKfyve localization, sphingolipid-like compounds limit access to lysosome-derived nutrients at the same time it down-regulates transporters for amino acids and glucose.
as §2

| Compound | % CD98 down-regulation [1] | Vacuolation score [2] | fusion of LC3-positive autophagosomes with LAMP1-positive lysosomes [3] | % CD98 down-regulation ([1]; listed as 104) | Vacuolation score ([2]; listed as 104) | macropinosome fusion with lysosomes [4] |
| --- | --- | --- | --- | --- | --- | --- |
| CCCCCCCCc1ccc(CCC(N)(CO)CO)cc1.Cl [FTY720, 2-Amino-2-[2-(4-octylphenyl)ethyl]propane 1,3-diol hydrochloride, reference compound] | 68 ± 3% | 82 ± 4 | reduced fusion |  |  |  |
| CCCCCCCCc1ccc([C@H]2CCN[C@@H]2CO)cc1.Cl [Compound 5, (2S,3R)-2-(hydroxymethyl)-3-(4-octylphenyl)Pyrrolidinium chloride] |  |  | reduced fusion | 54% and 54 ± 1% | 81 and 81 ± 3 | dramatically reduced macropinosome fusion with lysosomes |

Reference: patent US10995068B2, “Synthetic sphingolipid-like molecules, drugs, methods of their synthesis and methods of treatment” (The Regents of the University of California, priority 2015, dated 2021)
